The results in this text go back to US20200069648A1, “HALOALLYLAMINE PYRAZOLE DERIVATIVE INHIBITORS OF LYSYL OXIDASES AND USES THEREOF” (Pharmaxis Ltd., priority 2017, published 2020).

Structures can show the parent of a compound that is named as a salt.

The assay relates to metastatic oral cancer cell line expressing DsRed. The assay is described as follows: Oral metastatic cancer mouse model. Particulars: mice, 0.1-100 mg/Kg, up to five weeks; compared with vehicle-treated group. The assay is classed as in vivo. As to the method:
An analysis of the use of LOXL2 inhibitors to treat cancer diseases is performed through the use of an oral metastatic cancer mouse model.
Mice are injected with a metastatic oral cancer cell line expressing DsRed for tracking. Mice are monitored weekly by in vivo imaging (IVIS) based on DsRed expression and by caliper measurements of mouse tongues over a period of up to five weeks. Compound 15 is given 0.1-100 mg/Kg throughout the period of the experimental procedure or only two times a week throughout the entire study.

As to `Cc1nn(C/C(F)=C/CN)c(C)c1Cc1ccc(S(=O)(=O)N(C)C)c(Cl)c1` [Compound 15, (Z)-4-((1-(4-amino-2-fluorobut-2-en-1-yl)-3,5-dimethyl-1H-pyrazol-4-yl)methyl)-2-chloro-N,N-dimethylbenzenesulfonamide hydrochloride], the spread of metastasis entry is listed as “significant reduction” and the “tongue cancer volume (tongue volume)” value is “significant reduction”.
